Experimental data taken from US7517874B2 (priority 2007, dated 2009).
Where two headings read alike, the source gives them in different places.

Columns and labels:
rat CB2 receptor (rCB2) = molecular target: T1, rat CB2 receptor (rCB2) (Rattus norvegicus, UniProt Q9QZN9); experiment: cell-based; format: cell-based; details: for +/− RCB2: agonist or inverse agonist at rCB2
T1 sequence (Q9QZN9 1-360): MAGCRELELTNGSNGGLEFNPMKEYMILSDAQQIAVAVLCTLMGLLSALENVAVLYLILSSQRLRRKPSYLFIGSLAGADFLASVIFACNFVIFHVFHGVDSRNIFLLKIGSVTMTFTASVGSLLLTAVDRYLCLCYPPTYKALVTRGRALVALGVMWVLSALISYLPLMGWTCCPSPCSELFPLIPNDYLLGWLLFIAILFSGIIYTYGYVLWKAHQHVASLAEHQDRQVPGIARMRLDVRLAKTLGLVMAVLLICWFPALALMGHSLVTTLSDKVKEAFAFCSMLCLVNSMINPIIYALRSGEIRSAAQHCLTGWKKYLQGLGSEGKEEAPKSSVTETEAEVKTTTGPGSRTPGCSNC
Description: (§1) The ability of compounds to act as agonists or inverse agonists at human CB2 and CB1 receptors (hCB2, hCB1, respectively) and at the rat CB2 receptor (rCB2) was determined by measuring changes in intracellular cAMP levels. Chinese Hamster Ovary (CHO-K1) cell lines stably expressing hCB2 (Genebank: X74328) or hCB1 (Genebank: X54937) were purchased from Euroscreen (Gosselies, Belgium). The rat CB2 receptor was expressed from genomic DNA (provided by M. Abood, California Pacific Medical Center) in CHO-K1 cells from expression plasmid vector, pcDNA3.1.
(§2) Cell lines were grown in suspension in EX-CELL 302 CHO Serum-free medium (Sigma, cat #14324C) supplemented with 1% Fetal Bovine Serum, glutamine and non-essential amino-acids under 0.4 mg/mL G418 selection.
(§3) Receptor mediated responses were determined by measuring changes in intracellular cAMP using LANCE cAMP detection kit (cat #AD0264, Perkin Elmer, Wellesley, Mass.) based on time-resolved fluorescence resonance energy transfer (TR-FRET). Changes in cAMP were determined in cells pre-incubated with IBMX (isobutyl methylxanthine) and prestimulated with NKH-477 (a water soluble forskolin derivative, cat #1603, Tocris, Ellisville, Mo.) to increase basal cAMP levels as detailed below.
(§4) On the day of the experiment, cells were spun at low speed for 5 min at room temperature. The supernatant was removed and cells were resuspended in stimulation buffer (Hanks Buffered Salt Solution/5 mM HEPES, containing 0.5 mM IBMX (cat #17018, Sigma) and 0.02% BSA (Perkin-Elmer, cat #CR84-100)). Cell clumps were removed by filtering through cell strainer 40 μm (BD Falcon, Discovery Labware, Bedford, Mass.) and diluted to 2×10^5 cells/mL. Antibody supplied with the LANCE cAMP immunoassay kit was then added according to the manufacturer's instructions. An aliquot of cells was taken for un-induced controls. To the remaining cells was added NKH-477 (a water soluble forskolin derivative, Tocris cat #1603) to a final concentration of 2-8 μM. Cells were then incubated for 30 min at room temperature prior to adding to Proxiplates containing test compounds (final DMSO concentration was less than 0.5%) with a Multidrop bulk dispenser, followed by a sixty minute incubation at room temperature. The response was stopped by addition of the detection mix supplied with the LANCE kit. The reagents were allowed to equilibrate for three hours prior to reading on an Envision multi-mode detector (Perkin-Elmer). TR-FRET was measured using a 330-380 nm excitation filter, a 665 nm emission filter, dichroic mirror 380 nm and Z=1 mm. Cyclic AMP concentrations in each well were back-calculated from a cAMP standard curve run concurrently during each assay. Each plate contained 16 wells of forskolin stimulated cells and 16 wells of forskolin plus CP55,940-treated cells. Cells were treated with 1 μM CP55,940 (Tocris cat. #0949). Concentrations of cAMP were expressed as a percent of the difference of these two groups of wells. Concentration-response data including EC50 (the concentration of compound producing 50% of the maximal response) and intrinsic activity (the percent maximal activation compared to full activation by CP55,940) were determined using a four-parameter non-linear regression algorithm (Xlfit equation 251, IDBS).

[1] = molecular target: human CB1 receptor (hCB1) (Homo sapiens, UniProt P21554); experiment: cell-based; format: cell-based
Sequence of human CB1 receptor (hCB1) (P21554 whole entry): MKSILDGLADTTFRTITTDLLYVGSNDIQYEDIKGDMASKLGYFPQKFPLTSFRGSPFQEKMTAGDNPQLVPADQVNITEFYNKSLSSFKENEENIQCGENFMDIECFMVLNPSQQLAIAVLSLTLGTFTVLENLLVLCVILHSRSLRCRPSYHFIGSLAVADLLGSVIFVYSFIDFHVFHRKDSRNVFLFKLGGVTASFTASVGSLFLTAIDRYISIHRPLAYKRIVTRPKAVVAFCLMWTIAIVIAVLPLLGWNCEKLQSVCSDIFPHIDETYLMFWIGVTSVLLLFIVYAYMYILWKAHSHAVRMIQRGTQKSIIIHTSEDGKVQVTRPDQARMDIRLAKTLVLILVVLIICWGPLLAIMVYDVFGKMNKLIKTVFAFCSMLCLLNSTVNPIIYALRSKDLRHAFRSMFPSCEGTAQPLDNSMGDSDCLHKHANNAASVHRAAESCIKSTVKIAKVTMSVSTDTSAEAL
Description: as §1, §2, §3, §4

[2] = groups >100 nM-10 μM and >10 μM, cAMP, CHO-K1 hCB1, read-out: EC50 HCB1

SMILES | EC50 [1] [nM] | also measured
CNC(=O)[C@@H](NC(=O)c1nc(-c2ccccc2)n2c1CN(C(=O)OC(C)(C)C)CC2)C(C)(C)C [Compound 1, (S)-tert-butyl 1-(3,3-dimethyl-1-(methylamino)-1-oxobutan-2-ylcarbamoyl)-3-phenyl-5,6-dihydroimidazo[1,5-a]pyrazine-7(8H)-carboxylate] | > 10000 | +/− RCB2 (rat CB2 receptor (rCB2)): −
CNC(=O)[C@@H](NC(=O)c1nc(-c2ccccc2)n2c1CNCC2)C(C)(C)C [Compound 2, (S)-N-(3,3-dimethyl-1-(methylamino)-1-oxobutan-2-yl)-3-phenyl-5,6,7,8-tetrahydroimidazo[1,5-a]pyrazine-1-carboxamide] | > 10000 | +/− RCB2 (rat CB2 receptor (rCB2)): +
CNC(=O)[C@@H](NC(=O)c1nc(-c2cccc(C(F)(F)F)c2)n2c1CNCC2)C(C)(C)C [Compound 3, (S)-N-(3,3-dimethyl-1-(methylamino)-1-oxobutan-2-yl)-3-(3-(trifluoromethyl)phenyl)-5,6,7,8-tetrahydroimidazo[1,5-a]pyrazine-1-carboxamide] | > 10000 | +/− RCB2 (rat CB2 receptor (rCB2)): −
CNC(=O)[C@@H](NC(=O)c1nc(-c2cccc(F)c2)n2c1CNCC2)C(C)(C)C [Compound 4, (S)-N-(3,3-dimethyl-1-(methylamino)-1-oxobutan-2-yl)-3-(3-fluorophenyl)-5,6,7,8-tetrahydroimidazo[1,5-a]pyrazine-1-carboxamide] | > 10000 | EC50 (rat CB2 receptor (rCB2)): > 10 µM
CNC(=O)[C@@H](NC(=O)c1nc(-c2ccc(C(F)(F)F)cc2)n2c1CNCC2)C(C)(C)C [Compound 5, (S)-N-(3,3-dimethyl-1-(methylamino)-1-oxobutan-2-yl)-3-(4-(trifluoromethyl)phenyl)-5,6,7,8-tetrahydroimidazo[1,5-a]pyrazine-1-carboxamide] | > 10000 | +/− RCB2 (rat CB2 receptor (rCB2)): −
CNC(=O)[C@@H](NC(=O)c1nc(-c2csc3ccccc23)n2c1CNCC2)C(C)(C)C [Compound 20, (S)-3-(benzo[b]thiophen-3-yl)-N-(3,3-dimethyl-1-(methylamino)-1-oxobutan-2-yl)-5,6,7,8-tetrahydroimidazo[1,5-a]pyrazine-1-carboxamide] | > 10000 | 
CNC(=O)[C@@H](NC(=O)c1nc(-c2ccsc2)n2c1CN(C)CC2)C(C)(C)C [Compound 73, (S)-N-(3,3-dimethyl-1-(methylamino)-1-oxobutan-2-yl)-7-methyl-3-(thiophen-3-yl)-5,6,7,8-tetrahydroimidazo[1,5-a]pyrazine-1-carboxamide] | > 10000 | 
CNC(=O)[C@@H](NC(=O)c1nc(-c2ccsc2)n2c1CN(CC1CC1)CC2)C(C)(C)C [Compound 74, (S)-7-(cyclopropylmethyl)-N-(3,3-dimethyl-1-(methylamino)-1-oxobutan-2-yl)-3-(thiophen-3-yl)-5,6,7,8-tetrahydroimidazo[1,5-a]pyrazine-1-carboxamide] | > 10000 | 
CNC(=O)[C@H](C)NC(=O)c1nc(-c2ccccc2)n2c1CN(C)CC2 [Compound 78, (S)-7-methyl-N-(1-(methylamino)-1-oxopropan-2-yl)-3-phenyl-5,6,7,8-tetrahydroimidazo[1,5-a]pyrazine-1-carboxamide] |  | EC50 [1, 2]: > 10000 nM
CNC(=O)[C@@H](NC(=O)c1nc(-c2cscc2C)n2c1CN(C)CC2)C(C)(C)C [Compound 81, (S)-N-(3,3-dimethyl-1-(methylamino)-1-oxobutan-2-yl)-7-methyl-3-(4-methylthiophen-3-yl)-5,6,7,8-tetrahydroimidazo[1,5-a]pyrazine-1-carboxamide] | > 10000 | 
CC(C)(CO)CNC(=O)c1nc(-c2ccccc2)n2c1CN(CC1CC1)CC2 [Compound 83, 7-(cyclopropylmethyl)-N-(3-hydroxy-2,2-dimethylpropyl)-3-phenyl-5,6,7,8-tetrahydroimidazo[1,5-a]pyrazine-1-carboxamide] |  | EC50 [1, 2]: > 10000 nM
CC(C)(C)[C@@H](CO)NC(=O)c1nc(-c2ccccc2)n2c1CN(CC1CC1)CC2 [Compound 84, (S)-7-(cyclopropylmethyl)-N-(1-hydroxy-3,3-dimethylbutan-2-yl)-3-phenyl-5,6,7,8-tetrahydroimidazo[1,5-a]pyrazine-1-carboxamide] | > 10000 | 
CNC(=O)[C@@H](NC(=O)c1nc(-c2ccccc2)n2c1CN(S(=O)(=O)c1ccc(C(F)(F)F)cc1)CC2)C(C)(C)C [Compound 107, (S)-N-(3,3-dimethyl-1-(methylamino)-1-oxobutan-2-yl)-3-phenyl-7-(4-(trifluoromethyl)phenylsulfonyl)-5,6,7,8-tetrahydroimidazo[1,5-a]pyrazine-1-carboxamide] | > 10000 | 
CNC(=O)[C@@H](NC(=O)c1nc(-c2ccccc2)n2c1CN(S(=O)(=O)c1ccc(C#N)cc1)CC2)C(C)(C)C [Compound 108, (S)-7-(4-cyanophenylsulfonyl)-N-(3,3-dimethyl-1-(methylamino)-1-oxobutan-2-yl)-3-phenyl-5,6,7,8-tetrahydroimidazo[1,5-a]pyrazine-1-carboxamide] | > 10000 | 
CNC(=O)[C@@H](NC(=O)c1nc(-c2ccsc2)n2c1CN(S(=O)(=O)c1ccc(F)cc1)CC2)C(C)(C)C [Compound 109, (S)-N-(3,3-dimethyl-1-(methylamino)-1-oxobutan-2-yl)-7-(4-fluorophenylsulfonyl)-3-(thiophen-3-yl)-5,6,7,8-tetrahydroimidazo[1,5-a]pyrazine-1-carboxamide] | > 10000 | 
CNC(=O)[C@@H](NC(=O)c1nc(Br)n2c1CN(C)CC2)C(C)(C)C [Compound 203, (S)-3-bromo-N-(3,3-dimethyl-1-(methylamino)-1-oxobutan-2-yl)-7-methyl-5,6,7,8-tetrahydroimidazo[1,5-a]pyrazine-1-carboxamide] | > 10000 | 
CNC(=O)[C@@H](NC(=O)c1nc(-c2ccccc2)n2c1C[N+](C)(C)CC2)C(C)(C)C [Compound 311, (S)-1-(3,3-dimethyl-1-(methylamino)-1-oxobutan-2-ylcarbamoyl)-7,7-dimethyl-3-phenyl-5,6,7,8-tetrahydroimidazo[1,5-a]pyrazin-7-ium iodide] | > 10000 | 
CNC(=O)[C@@H](NC(=O)c1nc(Br)n2c1CN(C)CCC2)C(C)(C)C [Compound 324, (S)-3-bromo-N-(3,3-dimethyl-1-(methylamino)-1-oxobutan-2-yl)-8-methyl-6,7,8,9-tetrahydro-5H-imidazo[1,5-a][1,4]diazepine-1-carboxamide] | > 10000 | 
CNC(=O)[C@@H](NC(=O)c1nc(C2=CCCCO2)n2c1CN(C)CCC2)C(C)(C)C [Compound 452, (S)-3-(3,4-dihydro-2H-pyran-6-yl)-N-(3,3-dimethyl-1-(metylamino)-1-oxobutan-2-yl)-8-methyl-6,7,8,9-tetrahydro-5H-imidazo[1,5-a][1,4]diazepine-1-carboxamide] |  | +/− RCB2 (rat CB2 receptor (rCB2)): +
CNC(=O)[C@@H](NC(=O)c1nc(C2CCCC2)n2c1CN(C)CCC2)C(C)(C)C [Compound 497, (S)-3-cyclopentyl-N-(3,3-dimethyl-1-(methylamino)-1-oxobutan-2-yl)-8-methyl-6,7,8,9-tetrahydro-5H-imidazo[1,5-a][1,4]diazepine-1-carboxamide] |  | +/− RCB2 (rat CB2 receptor (rCB2)): +
CNC(=O)[C@@H](NC(=O)c1nc(-c2ccc(Cl)cc2F)n2c1CN(C1CCNCC1)CCC2)C(C)(C)C [Compound 526, (S)-3-(4-chloro-2-fluorophenyl)-N-(3,3-dimethyl-1-(methylamino)-1-oxobutan-2-yl)-8-(piperidin-4-yl)-6,7,8,9-tetrahydro-5H-imidazo[1,5-a][1,4]diazepine-1-carboxamide] | > 10000 | 
